# Molecular target: HSP90 (Homo sapiens, UniProt P07900)
# Assay: HSP90 inhibition (HSP90 IC50)
# Assay type: biochemical
row,SMILES,IC50 [nM]
1,Cc1cc(CO)ccc1C(=O)N[C@H]1C[C@H]2CC[C@@H](C1)N2c1ccc(C(=O)NCc2ccccc2)cn1 [6-[3-endo-({[4-(hydroxymethyl)-2-methylphenyl]carbonyl}amino)-8-azabicyclo[3.2.1]oct-8-yl]-N-(phenylmethyl)pyridine-3-carboxamide],< 500
2,COc1cc(C(=O)N[C@H]2C[C@H]3CC[C@@H](C2)N3c2ccc(C(N)=O)cn2)ccc1CO [6-[3-endo-({[4-(hydroxymethyl)-3-(methyloxy)phenyl]carbonyl}amino)-8-azabicyclo[3.2.1]oct-8-yl]pyridine-3-carboxamide],500 to 999
3,O=C(NCc1ccccc1)c1ccc(N2[C@@H]3CC[C@H]2C[C@@H](NC(=O)c2ccc(CO)cc2)C3)nc1 [6-[3-endo-({[4-(hydroxymethyl)phenyl]carbonyl}amino)-8-azabicyclo[3.2.1]oct-8-yl]-N-(phenylmethyl)pyridine-3-carboxamide],< 500
4,Cc1cnc(CNC(=O)c2ccc(N3[C@@H]4CC[C@H]3C[C@@H](NC(=O)c3ccc(CO)cc3)C4)nc2)cn1 [6-[3-endo-({[4-(hydroxymethyl)phenyl]carbonyl}amino)-8-azabicyclo[3.2.1]oct-8-yl]-N-[(5-methylpyrazin-2-yl)methyl]pyridine-3-carboxamide],< 500
5,NC(=O)c1ccc(N2[C@@H]3CC[C@H]2C[C@@H](NC(=O)c2ccc(CO)cc2)C3)nc1 [6-[3-endo-({[4-(hydroxymethyl)phenyl]carbonyl}amino)-8-azabicyclo[3.2.1]oct-8-yl]pyridine-3-carboxamide],< 500
6,N=C(N)c1ccc(C(=O)N[C@H]2C[C@H]3CC[C@@H](C2)N3c2ccc(C(=O)NCc3ccccc3)cn2)cc1 [6-{3-endo-[({4-[amino(imino)methyl]phenyl}carbonyl)amino]-8-azabicyclo[3.2.1]oct-8-yl}-N-(phenylmethyl)pyridine-3-carboxamide],2000 to 10000
7,"CCC(COC)Nc1cc(C(=O)N[C@H]2C[C@H]3CC[C@@H](C2)N3c2ccc(C(C)=O)cn2)ccc1C(N)=O (stereo partly drawn) [N4-(8-(5-acetylpyridin-2-yl)-8-azabicyclo[3.2.1]oct-3-endo-yl]-2-({1-[(methyloxy)methyl]propyl}amino) benzene-1,4-dicarboxamide]",< 500
8,"NC(=O)c1ccc(C(=O)NC2CC3CCC(C2)N3c2ccc(C(=O)NC3CCCC3)cn2)cc1NCC1CC1 (stereo not drawn) [N4-(8-{5-[(cyclopentylamino)carbonyl]pyridin-2-yl}-8-azabicyclo[3.2.1]oct-3-endo-yl)-2-[(cyclopropylmethyl)amino]benzene-1,4-dicarboxamide]",< 500
9,"CS(=O)(=O)CCNc1cc(C(=O)N[C@H]2C[C@H]3CC[C@@H](C2)N3c2ccc(C(=O)NC3CCCC3)cn2)ccc1C(N)=O [N4-(8-{5-[(cyclopentylamino)carbonyl]pyridin-2-yl}-8-azabicyclo[3.2.1]oct-3-endo-yl)-2-{[2-(methylsulfonyl)ethyl]amino}benzene-1,4-dicarboxamide]",< 500
10,"C[C@H](NC(=O)c1ccc(N2C3CCC2CC(NC(=O)c2ccc(C(N)=O)c(NCCS(C)(=O)=O)c2)C3)nc1)c1ccc(N2CCN(C)CC2)cc1 (stereo partly drawn) [N4-(8-{5-[({(1S)-1-[4-(4-methylpiperazin-1-yl)phenyl]ethyl}amino)carbonyl]pyridin-2-yl}-8-azabicyclo[3.2.1]oct-3-endo-yl)-2-{[2-(methylsulfonyl)ethyl]amino}benzene-1,4-dicarboxamide]",< 500
11,"COc1cc(Nc2cc(C(=O)NC3CC4CCC(C3)N4c3ccc(C(=O)N[C@@H](C)c4ccc(N5CCN(C)CC5)cc4)cn3)ccc2C(N)=O)cc(OC)c1OC (stereo partly drawn) [N4-(8-{5-[({(1S)-1-[4-(4-methylpiperazin-1-yl)phenyl]ethyl}amino)carbonyl]pyridin-2-yl}-8-azabicyclo[3.2.1]oct-3-endo-yl)-2-{[3,4,5-tris(methyloxy)phenyl]amino}benzene-1,4-dicarboxamide]",< 500

# More lines, now with the values ahead:
row,IC50 [nM],SMILES
1,2000 to 10000,CCCc1c(OC)cccc1C(=O)N[C@H]1C[C@H]2CC[C@@H](C1)N2c1ccc(C(=O)NCc2ccccc2)cn1 [6-[3-endo-({[3-(methyloxy)-2-propylphenyl]carbonyl}amino)-8-azabicyclo[3.2.1]oct-8-yl]-N-(phenylmethyl)pyridine-3-carboxamide]
2,< 500,Cc1cc(CO)ccc1C(=O)N[C@H]1C[C@H]2CC[C@@H](C1)N2c1ccc(C(=O)NCc2cccnc2)cn1 [6-[3-endo-({[4-(hydroxymethyl)-2-methylphenyl]carbonyl}amino)-8-azabicyclo[3.2.1]oct-8-yl]-N-(pyridin-3-ylmethyl)pyridine-3-carboxamide]
3,< 500,O=C(NCc1cccnc1)c1ccc(N2[C@@H]3CC[C@H]2C[C@@H](NC(=O)c2ccc(CO)cc2)C3)nc1 [6-[3-endo-({[4-(hydroxymethyl)phenyl]carbonyl}amino)-8-azabicyclo[3.2.1]oct-8-yl]-N-(pyridin-3-ylmethyl)pyridine-3-carboxamide]
4,2000 to 10000,C[C@H](NC(=O)c1ccc(N2C3CCC2CC(NC(=O)c2cccc(N[C@H]4CC[C@H](O)CC4)c2)C3)nc1)c1ccc(N2CCN(C)CC2)cc1 (stereo partly drawn) [6-{3-endo-[({3-[(4-hydroxycyclohexyl)amino]phenyl}carbonyl)amino]-8-azabicyclo[3.2.1]oct-8-yl}-N-{(1S)-1-[4-(4-methylpiperazin-1-yl)phenyl]ethyl}pyridine-3-carboxamide]
5,1000 to 2000,COc1ccc([C@H](NC(=O)c2ccc(N3C4CCC3CC(NC(=O)c3cccc(OC)c3C)C4)nc2)C(=O)O)cc1 (stereo partly drawn) [(2S)-[({6-[3-endo-({[2-methyl-3-(methyloxy)phenyl]carbonyl}amino)-8-azabicyclo[3.2.1]oct-8-yl]pyridin-3-yl}carbonyl)amino][4-(methyloxy)phenyl]ethanoic acid]
6,< 500,"CC(=O)c1ccc(N2[C@@H]3CC[C@H]2C[C@@H](NC(=O)c2ccc(C(N)=O)c(NCC4CCCNC4)c2)C3)nc1 (stereo partly drawn) [N4-(8-(5-acetylpyridin-2-yl)-8-azabicyclo[3.2.1]oct-3-endo-yl]-2-[(piperidin-3-ylmethyl)amino]benzene-1,4-dicarboxamide]"
7,< 500,"CC(C)[C@@H](C)Nc1cc(C(=O)NC2CC3CCC(C2)N3c2ccc(C(=O)C3CC3)cn2)ccc1C(N)=O (stereo partly drawn) [N4-(8-[5-(cyclopropylcarbonyl)pyridin-2-yl]-8-azabicyclo[3.2.1]oct-3-endo-yl)-2-{[(1R)-1,2-dimethylpropyl]amino}benzene-1,4-dicarboxamide]"
8,< 500,"NC(=O)c1ccc(C(=O)NC2CC3CCC(C2)N3c2ccc(C(=O)NC3CCCC3)cn2)cc1N[C@H]1CC[C@H](O)CC1 (stereo partly drawn) [N4-(8-{5-((cyclopentylamino)carbonyl]pyridin-2-yl}-8-azabicyclo[3.2.1]oct-3-endo-yl)-2-[(4-trans-hydroxycyclohexyl)amino]benzene-1,4-dicarboxamide]"
9,< 500,"C[C@H](NC(=O)c1ccc(N2C3CCC2CC(NC(=O)c2ccc(C(N)=O)c(NCCN4CCOCC4)c2)C3)nc1)c1ccc(N2CCN(C)CC2)cc1 (stereo partly drawn) [N4-(8-{5-[({(1S)-1-[4-(4-methylpiperazin-1-yl)phenyl]ethyl}amino)carbonyl]pyridin-2-yl}-8-azabicyclo[3.2.1]oct-3-endo-yl)-2-[(2-morpholin-4-ylethyl)amino]benzene-1,4-dicarboxamide]"
